Among the data in BindingDB's records for doi:10.1021/jm050113z (University of North Carolina at Chapel Hill, 2005) are Ki values, retold here.

The target of this test is T1, Protein RecA (Escherichia coli (strain K12), UniProt P0A7G6).
T1 sequence (P0A7G6 whole entry): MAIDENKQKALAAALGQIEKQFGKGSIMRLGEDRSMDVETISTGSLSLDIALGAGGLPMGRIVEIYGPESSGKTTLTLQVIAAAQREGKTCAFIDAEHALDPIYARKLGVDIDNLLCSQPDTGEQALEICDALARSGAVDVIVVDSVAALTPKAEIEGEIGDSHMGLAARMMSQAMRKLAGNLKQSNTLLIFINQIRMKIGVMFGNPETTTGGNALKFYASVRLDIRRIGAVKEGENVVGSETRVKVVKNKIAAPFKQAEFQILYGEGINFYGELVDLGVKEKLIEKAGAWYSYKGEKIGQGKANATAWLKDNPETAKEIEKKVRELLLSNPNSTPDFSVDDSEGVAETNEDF
Description: In vitro apparent inhibition constant against Escherichia coli RecA protein.

For `O=P(O)(O)OP(=O)(O)OC[C@H]1O[C@@H](n2cnc3c(Nc4cccc5ccccc45)ncnc32)[C@H](O)[C@@H]1O`, the Ki came out at 46 µM.
